Measurements: PubChem BioAssay (NCI)
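48-hour exposure; five concentrations; linearly interpolated endpoints. At the GI50, growth is halved. TGI: concentration producing complete growth inhibition.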

Assays:
Experiment in all cases: inhibition of tumour cell growth, NCI panel, 48 h
[1] = system: DU-145 prostate
[2] = system: UACC-257 melanoma
[3] = system: MCF7 breast
[4] = system: COLO 205 colon
[5] = system: NCI-H23 lung
[6] = system: UACC-62 melanoma
[7] = system: MDA-MB-231 breast
[8] = system: MDA-MB-435
[9] = system: K-562 leukemia
[10] = system: KM12 colon
[11] = system: IGROV1 ovarian
[12] = system: HOP-62 NSCLC
[13] = system: A549 NSCLC
[14] = system: UO-31 renal
[15] = system: SN12C renal
[16] = system: SW-620 colon
[17] = system: T-47D breast
[18] = system: SK-MEL-28 melanoma
[19] = system: HT29 colon
[20] = system: MDA-MB-468 breast
[21] = system: HS 578T breast
[22] = system: HCT-116 colon
[23] = system: OVCAR-3 ovarian
[24] = system: HCT-15 colon
[25] = system: EKVX NSCLC
[26] = system: HL-60(TB) leukemia
[27] = system: CAKI-1 renal
[28] = system: SF-295 CNS
[29] = system: RPMI-8226 leukemia
[30] = system: SK-OV-3 ovarian
[31] = system: OVCAR-8 ovarian
[32] = system: NCI-H460 lung
[33] = system: SF-539 CNS
[34] = system: MALME-3M melanoma
[35] = system: NCI-H522 lung
[36] = system: M14 melanoma
[37] = system: CCRF-CEM leukemia
[38] = system: ACHN renal
[39] = system: OVCAR-4 ovarian
[40] = system: LOX IMVI melanoma
[41] = system: SK-MEL-2 melanoma
[42] = system: SR leukemia
[43] = system: OVCAR-5 ovarian
[44] = system: SK-MEL-5 melanoma
[45] = system: HOP-92 NSCLC
[46] = system: BT-549 breast
[47] = system: U251 CNS
[48] = system: HCC-2998 colon
[49] = system: SNB-75 CNS
[50] = system: TK-10 renal
[51] = system: 786-0 renal
[52] = system: SF-268 CNS
[53] = system: RXF 393 renal
[54] = system: MOLT-4 leukemia
[55] = system: SNB-19 CNS
[56] = system: NCI-H226 lung
[57] = system: PC-3 prostate
[58] = system: A498 renal

SMILES: N#Cc1c(-c2ccc(Br)cc2)nc2n[nH]c(-c3ccc(Br)cc3)c2c1-c1ccc(C(F)(F)F)cc1
- GI50 [1]: 5.45 µM
- TGI [1]: > 100 µM
- GI50 [2]: 13.3 µM
- TGI [2]: 62.6 µM
- GI50 [3]: 3.13 µM
- TGI [3]: 24 µM
- GI50 [4]: 3.88 µM
- TGI [4]: 15.9 µM
- GI50 [5]: 4.31 µM
- TGI [5]: > 100 µM
- GI50 [6]: 2.61 µM
- TGI [6]: 13.3 µM
- GI50 [7]: 5.37 µM
- TGI [7]: 19.3 µM
- GI50 [8]: 4.03 µM
- TGI [8]: 21.4 µM
- GI50 [9]: 2.61 µM
- TGI [9]: 10.3 µM
- GI50 [10]: 4.4 µM
- TGI [10]: 26.8 µM
- GI50 [11]: 2.71 µM
- TGI [11]: 15.4 µM
- GI50 [12]: 14.1 µM
- TGI [12]: 44.7 µM
- GI50 [13]: 4.62 µM
- TGI [13]: > 100 µM
- GI50 [14]: 2.07 µM
- TGI [14]: 14.9 µM
- GI50 [15]: 3.3 µM
- TGI [15]: 15.8 µM
- GI50 [16]: 4.39 µM
- TGI [16]: > 100 µM
- GI50 [17]: 3.39 µM
- TGI [17]: 93.9 µM
- GI50 [18]: 6.79 µM
- TGI [18]: 26.3 µM
- GI50 [19]: 3.84 µM
- TGI [19]: 35.7 µM
- GI50 [20]: 3.44 µM
- TGI [20]: 15.5 µM
- GI50 [21]: 10.2 µM
- TGI [21]: 49.1 µM
- GI50 [22]: 3.42 µM
- TGI [22]: 73.2 µM
- GI50 [23]: 5.32 µM
- TGI [23]: 34.3 µM
- GI50 [24]: 3.29 µM
- TGI [24]: 19.1 µM
- GI50 [25]: 3.05 µM
- TGI [25]: 27.3 µM
- GI50 [26]: 2.03 µM
- TGI [26]: 6.13 µM
- GI50 [27]: 4.01 µM
- TGI [27]: 24.2 µM
- GI50 [28]: 2.61 µM
- TGI [28]: 10.1 µM
- GI50 [29]: 2.35 µM
- TGI [29]: 10.4 µM
- GI50 [30]: 14.2 µM
- TGI [30]: 69.1 µM
- GI50 [31]: 12.5 µM
- TGI [31]: > 100 µM
- GI50 [32]: 3.62 µM
- TGI [32]: 19.4 µM
- GI50 [33]: 5.35 µM
- TGI [33]: 22.2 µM
- GI50 [34]: 2.34 µM
- TGI [34]: 6.47 µM
- GI50 [35]: 3.78 µM
- TGI [35]: 36.9 µM
- GI50 [36]: 5.24 µM
- TGI [36]: 23.7 µM
- GI50 [37]: 3.05 µM
- TGI [37]: 13 µM
- GI50 [38]: 3.26 µM
- TGI [38]: 14.3 µM
- GI50 [39]: 4.02 µM
- TGI [39]: 25.6 µM
- GI50 [40]: 3.45 µM
- TGI [40]: > 100 µM
- GI50 [41]: 10.1 µM
- TGI [41]: 23.6 µM
- GI50 [42]: 2.5 µM
- TGI [42]: 7.71 µM
- GI50 [43]: 7.58 µM
- TGI [43]: 26.9 µM
- GI50 [44]: 3.29 µM
- TGI [44]: 10.8 µM
- GI50 [45]: 1.65 µM
- TGI [45]: 4.73 µM
- GI50 [46]: 2.56 µM
- TGI [46]: 8.18 µM
- GI50 [47]: 6.23 µM
- TGI [47]: 62.4 µM
- GI50 [48]: 5.27 µM
- TGI [48]: 27.1 µM
- GI50 [49]: 12.6 µM
- TGI [49]: 43.9 µM
- GI50 [50]: 19.7 µM
- TGI [50]: 58.3 µM
- GI50 [51]: 7.85 µM
- TGI [51]: 28.1 µM
- GI50 [52]: 7.91 µM
- TGI [52]: > 100 µM
- GI50 [53]: 6.93 µM
- TGI [53]: 28.4 µM
- GI50 [54]: 1.89 µM
- TGI [54]: 6.02 µM
- GI50 [55]: 4.53 µM
- TGI [55]: 33.3 µM
- GI50 [56]: 3.07 µM
- TGI [56]: 18 µM
- GI50 [57]: 1.95 µM
- TGI [57]: 12.4 µM
- GI50 [58]: 15.1 µM
- TGI [58]: 45.2 µM
